Results as given in paper PMC1924862, “X-ray structures of Na-GST-1 and Na-GST-2 two glutathione s-transferase from the human hookworm Necator americanus” (BMC Structural Biology, 2007).
Read-outs that look alike come from different tables or passages of the source.

Assays:
Na-GST-1 = molecular target: T1, Na-GST-1 (Necator americanus, UniProt D3U1A5); experiment: CDNB-glutathione conjugation, absorbance at […] nm; assay type: biochemical
T1 construct: 206 residues ordered; homodimer; Nu class
T1 sequence (D3U1A5 1-206): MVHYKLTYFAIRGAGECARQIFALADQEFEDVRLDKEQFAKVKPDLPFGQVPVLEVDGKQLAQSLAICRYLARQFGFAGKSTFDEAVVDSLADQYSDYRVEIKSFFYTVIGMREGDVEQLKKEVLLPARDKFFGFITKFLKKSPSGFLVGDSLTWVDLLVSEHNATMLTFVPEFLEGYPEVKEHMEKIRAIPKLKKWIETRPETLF

Na-GST-2 = molecular target: T2, Na-GST-2 (Necator americanus, UniProt D3U1A6); experiment: CDNB-glutathione conjugation, absorbance at […] nm; assay type: biochemical
T2 construct: homodimer; Nu class; glutathione carried over from fermentation
T2 sequence (D3U1A6 1-206): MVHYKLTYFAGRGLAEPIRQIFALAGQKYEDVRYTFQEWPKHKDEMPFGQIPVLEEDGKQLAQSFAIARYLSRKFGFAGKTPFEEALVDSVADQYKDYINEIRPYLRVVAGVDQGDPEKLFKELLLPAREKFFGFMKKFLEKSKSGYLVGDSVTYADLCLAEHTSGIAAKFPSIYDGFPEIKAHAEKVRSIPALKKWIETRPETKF

SMILES	IC50 (Na-GST-1; read-out: Na-GST-1) [µM]	IC50 (Na-GST-2) [µM]	IC50 (Na-GST-1) [µM]
CCCSc1ccc2nc(NC(=O)OC)[nH]c2c1 [albendazole]	87	68	
[Cl][Sn]([c]1ccccc1)([c]1ccccc1)[c]1ccccc1 [chlorotriphenyltin]		0.7	22
O=C(C1CCCCC1)N1CC(=O)N2CCc3ccccc3C2C1 (stereo not drawn) [praziquantel]	> 20000	3300	
